Measurements reported in ChEMBL document CHEMBL1151381, “Aporphine Alkaloids From Annona acuminata” (1982).
Converted amounts (≈) assume the structure as drawn.

These compounds were tested on KB (assay: Cytotoxicity against human KB cells). Conditions: read-out: ED50 (the source's name).
Format: functional

SMILES	EC50 [µg/mL]
COc1c(OC)c2c3c(nccc3c1OC)C(=O)c1ccccc1-2 [HOMOMOSCHATOLINE]	> 10
O=C1c2ccccc2-c2c3c(cc4ccnc1c24)OCO3 [LIRIODENINE]	3.1 (≈ 11.3 µM)
COc1cc2ccnc3c2c(c1OC)-c1ccccc1C3=O [LYSICAMINE]	> 10
